The record followed here is ChEMBL document CHEMBL4145686, “Discovery of a Potent and Selective Steroidal Glucocorticoid Receptor Antagonist (ORIC-101)” (J Med Chem, 2018).

For series [1], the target named is T1, Progesterone receptor (Homo sapiens, UniProt P06401).
T1 sequence (P06401 whole entry): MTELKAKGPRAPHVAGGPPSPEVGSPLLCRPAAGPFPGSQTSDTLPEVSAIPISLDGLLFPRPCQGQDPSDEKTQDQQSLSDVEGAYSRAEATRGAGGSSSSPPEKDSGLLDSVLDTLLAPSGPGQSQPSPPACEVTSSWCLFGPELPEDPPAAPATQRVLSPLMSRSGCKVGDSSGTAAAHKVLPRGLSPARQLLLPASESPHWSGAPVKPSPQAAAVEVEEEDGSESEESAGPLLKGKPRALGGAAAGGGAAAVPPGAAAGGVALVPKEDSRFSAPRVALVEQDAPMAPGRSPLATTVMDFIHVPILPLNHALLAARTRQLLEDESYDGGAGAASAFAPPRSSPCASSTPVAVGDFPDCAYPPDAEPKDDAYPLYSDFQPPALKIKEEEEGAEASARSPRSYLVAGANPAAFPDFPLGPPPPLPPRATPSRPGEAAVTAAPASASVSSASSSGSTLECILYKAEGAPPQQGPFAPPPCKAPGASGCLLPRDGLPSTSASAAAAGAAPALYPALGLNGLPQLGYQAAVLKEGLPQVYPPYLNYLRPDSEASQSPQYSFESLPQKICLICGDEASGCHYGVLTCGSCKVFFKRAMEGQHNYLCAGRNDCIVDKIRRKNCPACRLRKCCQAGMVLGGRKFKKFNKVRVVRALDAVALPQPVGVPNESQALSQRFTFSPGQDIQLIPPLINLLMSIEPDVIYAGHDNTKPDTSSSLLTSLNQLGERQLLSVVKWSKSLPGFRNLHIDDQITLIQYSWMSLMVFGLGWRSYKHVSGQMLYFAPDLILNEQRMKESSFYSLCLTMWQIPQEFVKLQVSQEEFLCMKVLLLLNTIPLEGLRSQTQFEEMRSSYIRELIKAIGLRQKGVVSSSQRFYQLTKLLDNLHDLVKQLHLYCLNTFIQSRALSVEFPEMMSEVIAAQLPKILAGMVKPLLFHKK
The experiment in a line: Antagonist activity at human PR expressed in CHO-K1 cells assessed as reduction in progesterone-induced response incubated for 20 hrs by luciferase reporter gene assay. The format is cell-based.

Series [2] is described as follows: Oral bioavailability in mouse at 5 mg/kg. The format is ADME, organism-based. Particulars: in vivo.
Series [3] deals with T2, Androgen receptor (Homo sapiens, UniProt P10275).
T2 sequence (P10275 whole entry): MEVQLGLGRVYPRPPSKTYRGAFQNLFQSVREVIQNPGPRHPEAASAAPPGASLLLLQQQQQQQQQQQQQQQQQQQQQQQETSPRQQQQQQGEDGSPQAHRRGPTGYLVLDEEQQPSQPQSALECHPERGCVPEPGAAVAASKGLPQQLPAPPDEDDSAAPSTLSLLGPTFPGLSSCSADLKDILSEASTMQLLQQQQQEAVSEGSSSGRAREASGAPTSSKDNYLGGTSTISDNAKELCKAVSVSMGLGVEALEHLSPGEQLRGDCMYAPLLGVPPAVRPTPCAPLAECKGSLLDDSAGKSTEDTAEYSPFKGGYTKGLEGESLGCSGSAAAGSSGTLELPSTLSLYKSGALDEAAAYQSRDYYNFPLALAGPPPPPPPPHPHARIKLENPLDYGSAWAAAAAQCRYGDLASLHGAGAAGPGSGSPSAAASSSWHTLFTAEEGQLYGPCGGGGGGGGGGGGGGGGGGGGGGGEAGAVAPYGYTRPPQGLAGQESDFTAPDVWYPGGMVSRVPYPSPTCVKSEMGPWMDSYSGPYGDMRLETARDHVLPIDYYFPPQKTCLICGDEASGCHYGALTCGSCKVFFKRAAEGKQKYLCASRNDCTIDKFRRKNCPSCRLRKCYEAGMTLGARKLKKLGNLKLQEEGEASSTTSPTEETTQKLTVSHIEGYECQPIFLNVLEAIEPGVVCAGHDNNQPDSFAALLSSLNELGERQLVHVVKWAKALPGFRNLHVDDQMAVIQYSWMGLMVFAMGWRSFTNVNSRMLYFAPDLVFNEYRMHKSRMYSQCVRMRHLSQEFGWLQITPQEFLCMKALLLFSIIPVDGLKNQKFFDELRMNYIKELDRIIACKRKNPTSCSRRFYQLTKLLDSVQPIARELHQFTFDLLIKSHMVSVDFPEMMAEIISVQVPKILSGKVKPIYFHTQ
Kind of series: Agonist activity at AR in human MDA-MB-453 cells assessed as increase in CLDN8 gene expression at 111 to 333 nM incubated for 24 hrs by RT-qPCR method. The format is cell-based. Particulars: mda-mb-453, 24 h, 0.333 µM.

Series [4] is described as follows: Half life in mouse at 0.5 mg/kg, iv. The format is ADME, organism-based. Particulars: in vivo.
In series [5] the target is T2, Androgen receptor. The experiment in a line: Agonist activity at AR in human MDA-MB-453 cells assessed as increase in SEC14L2 gene expression at 111 to 333 nM incubated for 24 hrs by RT-qPCR method. The format is cell-based. The settings on record: mda-mb-453, 24 h, 0.333 µM. On the technique in general: Real-time PCR tracks product formation cycle by cycle.
Series [6] has as its system OVCAR-5. The experiment in a line: Potentiation of carboplatin-induced antitumor activity against human OVCAR5 cells xenografted in chronic cortisol treated nude mouse assessed as reduction in tumor volume at 75 mg/kg, po BID dosed via gavage co-treated with gencitabine at 60 mg/kg dosed every 3 days for 4 doses. The series is classed as functional, organism-based. (A xenograft is tissue or cells of one species grown in another, often human tumour cells in immunodeficient mice.)

In series [7] the target is T3, Glucocorticoid receptor (Canis lupus familiaris, UniProt A0A8C0QLS2).
T3 sequence (A0A8C0QLS2 whole entry): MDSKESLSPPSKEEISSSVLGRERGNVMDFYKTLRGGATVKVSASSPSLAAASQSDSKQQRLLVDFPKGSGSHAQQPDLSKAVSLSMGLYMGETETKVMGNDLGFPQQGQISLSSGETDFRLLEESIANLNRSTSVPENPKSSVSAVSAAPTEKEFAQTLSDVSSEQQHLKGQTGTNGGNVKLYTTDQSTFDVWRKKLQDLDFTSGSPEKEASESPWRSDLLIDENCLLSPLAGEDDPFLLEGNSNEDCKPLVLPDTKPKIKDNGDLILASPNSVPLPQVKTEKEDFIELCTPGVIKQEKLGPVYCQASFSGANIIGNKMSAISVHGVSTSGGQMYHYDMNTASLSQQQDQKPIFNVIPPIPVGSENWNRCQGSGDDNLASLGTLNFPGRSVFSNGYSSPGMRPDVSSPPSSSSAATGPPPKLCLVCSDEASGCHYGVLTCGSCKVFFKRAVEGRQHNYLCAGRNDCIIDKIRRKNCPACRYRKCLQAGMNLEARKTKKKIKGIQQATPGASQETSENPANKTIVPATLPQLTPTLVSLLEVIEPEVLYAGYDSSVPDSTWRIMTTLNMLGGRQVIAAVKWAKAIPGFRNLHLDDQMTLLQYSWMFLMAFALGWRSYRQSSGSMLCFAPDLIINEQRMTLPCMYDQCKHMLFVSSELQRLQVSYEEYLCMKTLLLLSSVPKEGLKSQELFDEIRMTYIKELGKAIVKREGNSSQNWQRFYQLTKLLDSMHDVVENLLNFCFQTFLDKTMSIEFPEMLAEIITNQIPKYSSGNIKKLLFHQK
Kind of series: Antagonist activity at GR in dog PBMC assessed as reduction in dexamethasone-induced FKBP5 gene expression incubated for 6 hrs by RT-qPCR method. The series is classed as cell-based.

A short description of series [8]: AUC in rat at 5 mg/kg, po. Particulars: in vivo. The series is classed as ADME, organism-based.

Molecules are shown by their SMILES. Active and inactive are the calls of the source. The rule behind the calls is not given here.

`CC(C)N(C)c1ccc([C@H]2C[C@@]3(C)[C@@H](CC[C@@]3(O)C#CC(C)(C)C)[C@@H]3CCC4=CC(=O)CC[C@@H]4[C@H]32)cc1`: the values for the IC50 in series [1] and in series [7] were 21 nM and 24.5 nM, respectively. The bioavailability – broadly, dose-corrected exposure relative to a reference, in per cent – in series [2] turned out to be 21%. For the same compound, the Activity result in series [3] and in series [5] was “Not Active” throughout. For the same compound, the half-life (commonly how long it takes for the measured level to halve) in series [4] is 4.83 h. The result in series [6] was Active. Moreover, the AUC (as a rule, concentration integrated over time) in series [8] stood at 635 ng·h/mL.
